# According to ChEMBL document CHEMBL1649268, “Comparative in vitro activity profile of oritavancin against recent gram-positive clinical isolates” (2009):
# Tests used:
# Streptococcus pneumoniae [1] = assay: Antimicrobial activity against penicillin-susceptible Streptococcus pneumoniae clinical isolates assessed as resistant isolates by broth microdilution method; assay type: functional
# [2] = test system: Staphylococcus epidermidis; assay: Antimicrobial activity against oxacillin-resistant Staphylococcus epidermidis clinical isolates assessed as percent susceptible isolates by broth microdilution method; assay type: functional
# Staphylococcus aureus [3] = assay: Antimicrobial activity against Staphylococcus aureus clinical isolates by broth microdilution method; assay type: functional
# [4] = Antimicrobial activity against erythromycin-nonsusceptible Streptococcus Group G clinical isolates assessed as resistant isolates by broth microdilution method; assay type: functional, Streptococcus sp. 'group G'
# [5] = test system: Staphylococcus haemolyticus; assay: Antimicrobial activity against oxacillin-resistant Staphylococcus haemolyticus clinical isolates assessed as resistant isolates by broth microdilution method; assay type: functional
# [6] = Antimicrobial activity against erythromycin-nonsusceptible Streptococcus Group G clinical isolates assessed as percent susceptible isolates by broth microdilution method; assay type: functional, Streptococcus sp. 'group G'
# Staphylococcus aureus [7] = assay: Antimicrobial activity against Staphylococcus aureus clinical isolates assessed as percent susceptible isolates by broth microdilution method; assay type: functional
# [8] = test system: Staphylococcus epidermidis; assay: Antimicrobial activity against Staphylococcus epidermidis clinical isolates by broth microdilution method; assay type: functional
# [9] = test system: Staphylococcus haemolyticus; assay: Antimicrobial activity against oxacillin-susceptible Staphylococcus haemolyticus clinical isolates by broth microdilution method; assay type: functional
# Streptococcus [10] = assay: Antimicrobial activity against erythromycin-nonsusceptible Streptococcus Group F clinical isolates assessed as resistant isolates by broth microdilution method; assay type: functional
# [11] = test system: Staphylococcus haemolyticus; assay: Antimicrobial activity against Staphylococcus haemolyticus clinical isolates assessed as percent susceptible isolates by broth microdilution method; assay type: functional
# [12] = test system: Staphylococcus epidermidis; assay: Antimicrobial activity against oxacillin-susceptible Staphylococcus epidermidis clinical isolates assessed as percent susceptible isolates by broth microdilution method; assay type: functional
# [13] = Antimicrobial activity against Streptococcus Group G clinical isolates assessed as resistant isolates by broth microdilution method; assay type: functional, Streptococcus sp. 'group G'
# Streptococcus pneumoniae [14] = assay: Antimicrobial activity against penicillin-intermediate Streptococcus pneumoniae clinical isolates assessed as resistant isolates by broth microdilution method; assay type: functional
# [15] = test system: Staphylococcus haemolyticus; assay: Antimicrobial activity against oxacillin-resistant Staphylococcus haemolyticus clinical isolates by broth microdilution method; assay type: functional
# Streptococcus pneumoniae [16] = assay: Antimicrobial activity against penicillin-resistant Streptococcus pneumoniae clinical isolates assessed as resistant isolates by broth microdilution method; assay type: functional
# Streptococcus pneumoniae [17] = assay: Antimicrobial activity against Streptococcus pneumoniae clinical isolates assessed as resistant isolates by broth microdilution method; assay type: functional
# [18] = Antimicrobial activity against erythromycin-nonsusceptible Streptococcus Group C clinical isolates assessed as resistant isolates by broth microdilution method; assay type: functional, Streptococcus sp. 'group C'
# [19] = test system: Staphylococcus haemolyticus; assay: Antimicrobial activity against oxacillin-susceptible Staphylococcus haemolyticus clinical isolates assessed as percent susceptible isolates by broth microdilution method; assay type: functional
# Staphylococcus aureus [20] = assay: Antimicrobial activity against Staphylococcus aureus clinical isolates assessed as resistant isolates by broth microdilution method; assay type: functional
# Staphylococcus aureus [21] = assay: Antimicrobial activity against oxacillin-resistant Staphylococcus aureus clinical isolates assessed as percent susceptible isolates by broth microdilution method; assay type: functional
# Streptococcus [22] = assay: Antimicrobial activity against erythromycin-nonsusceptible Streptococcus Group F clinical isolates assessed as percent susceptible isolates by broth microdilution method; assay type: functional
# Streptococcus [23] = assay: Antimicrobial activity against Streptococcus Group F clinical isolates assessed as percent susceptible isolates by broth microdilution method; assay type: functional
# [24] = test system: Staphylococcus haemolyticus; assay: Antimicrobial activity against oxacillin-susceptible Staphylococcus haemolyticus clinical isolates assessed as resistant isolates by broth microdilution method; assay type: functional
# Staphylococcus aureus [25] = assay: Antimicrobial activity against oxacillin-susceptible Staphylococcus aureus clinical isolates assessed as percent susceptible isolates by broth microdilution method; assay type: functional
# [26] = Antimicrobial activity against erythromycin-susceptible Streptococcus Group G clinical isolates assessed as resistant isolates by broth microdilution method; assay type: functional, Streptococcus sp. 'group G'
# Streptococcus [27] = assay: Antimicrobial activity against Streptococcus Group F clinical isolates assessed as resistant isolates by broth microdilution method; assay type: functional
# Staphylococcus aureus [28] = assay: Antimicrobial activity against oxacillin-susceptible Staphylococcus aureus clinical isolates assessed as resistant isolates by broth microdilution method; assay type: functional
# [29] = test system: Staphylococcus haemolyticus; assay: Antimicrobial activity against oxacillin-resistant Staphylococcus haemolyticus clinical isolates assessed as percent susceptible isolates by broth microdilution method; assay type: functional
# [30] = Antimicrobial activity against Streptococcus Group C clinical isolates assessed as resistant isolates by broth microdilution method; assay type: functional, Streptococcus sp. 'group C'
# Enterococcus faecalis [31] = assay: Antimicrobial activity against Enterococcus faecalis expressing VanA gene clinical isolates by broth microdilution method; assay type: functional
# Enterococcus faecalis [32] = assay: Antimicrobial activity against vancomycin-nonsusceptible Enterococcus faecalis clinical isolates assessed as resistant isolates by broth microdilution method; assay type: functional
# Enterococcus faecalis [33] = assay: Antimicrobial activity against Enterococcus faecalis clinical isolates by broth microdilution method; assay type: functional
# Enterococcus faecalis [34] = assay: Antimicrobial activity against Enterococcus faecalis expressing VanB gene clinical isolates assessed as resistant isolates by broth microdilution method; assay type: functional
# Enterococcus faecium [35] = assay: Antimicrobial activity against Enterococcus faecium clinical isolates by broth microdilution method; assay type: functional
# Enterococcus faecium [36] = assay: Antimicrobial activity against Enterococcus faecium expressing VanA gene clinical isolates assessed as percent susceptible isolates by broth microdilution method; assay type: functional
# Enterococcus faecium [37] = assay: Antimicrobial activity against vancomycin-nonsusceptible Enterococcus faecium clinical isolates by broth microdilution method; assay type: functional
# Enterococcus faecium [38] = assay: Antimicrobial activity against Enterococcus faecium expressing VanA gene clinical isolates by broth microdilution method; assay type: functional
# Enterococcus faecium [39] = assay: Antimicrobial activity against Enterococcus faecium clinical isolates assessed as resistant isolates by broth microdilution method; assay type: functional
# Enterococcus faecium [40] = assay: Antimicrobial activity against Enterococcus faecium expressing VanB gene clinical isolates assessed as resistant isolates by broth microdilution method; assay type: functional
# Enterococcus faecium [41] = assay: Antimicrobial activity against vancomycin-susceptible Enterococcus faecium clinical isolates assessed as percent susceptible isolates by broth microdilution method; assay type: functional
# Enterococcus faecalis [42] = assay: Antimicrobial activity against Enterococcus faecalis expressing VanA gene clinical isolates assessed as resistant isolates by broth microdilution method; assay type: functional
# Enterococcus faecium [43] = assay: Antimicrobial activity against Enterococcus faecium expressing VanA gene clinical isolates assessed as resistant isolates by broth microdilution method; assay type: functional
# Enterococcus faecalis [44] = assay: Antimicrobial activity against vancomycin-susceptible Enterococcus faecalis clinical isolates by broth microdilution method; assay type: functional
# Enterococcus faecalis [45] = assay: Antimicrobial activity against vancomycin-nonsusceptible Enterococcus faecalis clinical isolates by broth microdilution method; assay type: functional
# Enterococcus faecalis [46] = assay: Antimicrobial activity against Enterococcus faecalis clinical isolates assessed as resistant isolates by broth microdilution method; assay type: functional
# Enterococcus faecalis [47] = assay: Antimicrobial activity against vancomycin-nonsusceptible Enterococcus faecalis clinical isolates assessed as percent susceptible isolates by broth microdilution method; assay type: functional
# Enterococcus faecium [48] = assay: Antimicrobial activity against Enterococcus faecium expressing VanB gene clinical isolates by broth microdilution method; assay type: functional
# Enterococcus faecalis [49] = assay: Antimicrobial activity against Enterococcus faecalis expressing VanB gene clinical isolates by broth microdilution method; assay type: functional
# Enterococcus faecium [50] = assay: Antimicrobial activity against vancomycin-nonsusceptible Enterococcus faecium clinical isolates assessed as resistant isolates by broth microdilution method; assay type: functional
# Enterococcus faecalis [51] = assay: Antimicrobial activity against Enterococcus faecalis clinical isolates assessed as percent susceptible isolates by broth microdilution method; assay type: functional
# Enterococcus faecalis [52] = assay: Antimicrobial activity against vancomycin-susceptible Enterococcus faecalis clinical isolates assessed as resistant isolates by broth microdilution method; assay type: functional
# Enterococcus faecalis [53] = assay: Antimicrobial activity against vancomycin-susceptible Enterococcus faecalis clinical isolates assessed as percent susceptible isolates by broth microdilution method; assay type: functional
# Enterococcus faecium [54] = assay: Antimicrobial activity against vancomycin-susceptible Enterococcus faecium clinical isolates assessed as resistant isolates by broth microdilution method; assay type: functional
# Staphylococcus aureus [55] = assay: Antimicrobial activity against oxacillin-resistant Staphylococcus aureus clinical isolates by broth microdilution method; assay type: functional
# [56] = test system: Staphylococcus epidermidis; assay: Antimicrobial activity against oxacillin-resistant Staphylococcus epidermidis clinical isolates by broth microdilution method; assay type: functional
compound,measurement,setting,value
CCC[C@@H]1C[C@@H](C(=O)N[C@@H]([C@H]2O[C@H](SC)[C@H](O)[C@@H](O)[C@H]2O)[C@H](C)Cl)N(C)C1 [CLINDAMYCIN],Percent of isolates resistant,Streptococcus pneumoniae [1],2.6%
same,Activity,[2],56.3%
same,MIC90,Staphylococcus aureus [3],> 4 µg/mL
same,Activity,[4],17.6%
same,Activity,[5],37.1%
same,Activity,[6],82.4%
same,Activity,Staphylococcus aureus [7],75.7%
same,MIC90,[8],> 4 µg/mL
same,MIC90,[9],0.12 µg/mL
same,Activity,Streptococcus [10],17.6%
same,Activity,[11],70.3%
same,Activity,[12],88.2%
same,Activity,[13],3.6%
same,Percent of isolates resistant,Streptococcus pneumoniae [14],15.3%
same,MIC90,[15],> 4 µg/mL
same,Percent of isolates resistant,Streptococcus pneumoniae [16],54.1%
same,Resistant isolates,Streptococcus pneumoniae [17],12.9%
same,Activity,[18],17.6%
same,Activity,[19],95.8%
same,Percent resistant isolates,Staphylococcus aureus [20],24.1%
same,Activity,Staphylococcus aureus [21],61.9%
same,Activity,Streptococcus [22],82.4%
same,Activity,Streptococcus [23],96.4%
same,Activity,[24],2.8%
same,Activity,Staphylococcus aureus [25],91.8%
same,Activity,[26],0%
same,Activity,Streptococcus [27],3.6%
same,Percent of isolates resistant,Staphylococcus aureus [28],8%
same,Activity,[29],60.9%
same,Activity,[30],3.6%
C[C@H]1COc2c(N3CCN(C)CC3)c(F)cc3c(=O)c(C(=O)O)cn1c23.C[C@H]1COc2c(N3CCN(C)CC3)c(F)cc3c(=O)c(C(=O)O)cn1c23.O [LEVOFLOXACIN],Percent of isolates resistant,Streptococcus pneumoniae [1],0.5%
same,Activity,[4],0%
same,MIC90,Enterococcus faecalis [31],> 16 µg/mL
same,Activity,[13],0%
same,Percent of isolates resistant,Streptococcus pneumoniae [14],2.3%
same,Activity,Enterococcus faecalis [32],100%
same,MIC90,Enterococcus faecalis [33],> 16 µg/mL
same,Percent of isolates resistant,Streptococcus pneumoniae [16],0.7%
same,Activity,Enterococcus faecalis [34],100%
same,Resistant isolates,Streptococcus pneumoniae [17],0.9%
same,MIC90,Enterococcus faecium [35],> 16 µg/mL
same,Activity,[18],0%
same,Activity,Enterococcus faecium [36],0.2%
same,MIC90,Enterococcus faecium [37],> 16 µg/mL
same,MIC90,Enterococcus faecium [38],> 16 µg/mL
same,Activity,Enterococcus faecium [39],85.3%
same,Activity,Enterococcus faecium [40],100%
same,Activity,Enterococcus faecium [41],28.3%
same,Activity,Enterococcus faecalis [42],100%
same,Activity,Enterococcus faecium [43],99.8%
same,MIC90,Enterococcus faecalis [44],> 16 µg/mL
same,MIC90,Enterococcus faecalis [45],> 16 µg/mL
same,Activity,Enterococcus faecalis [46],38.4%
same,Activity,[26],0%
same,Activity,Enterococcus faecalis [47],0%
same,MIC90,Enterococcus faecium [48],> 16 µg/mL
same,MIC90,Enterococcus faecalis [49],> 16 µg/mL
same,Activity,Enterococcus faecium [50],99.8%
same,Activity,Enterococcus faecalis [51],61.2%
same,Activity,Enterococcus faecalis [52],35.2%
same,Activity,Enterococcus faecalis [53],64.4%
same,Activity,[30],0%
same,Activity,Enterococcus faecium [54],66%
CN[C@H](CC(C)C)C(=O)N[C@H]1C(=O)N[C@@H](CC(N)=O)C(=O)N[C@H]2C(=O)N[C@H]3C(=O)N[C@H](C(=O)N[C@H](C(=O)O)c4cc(O)cc(O)c4-c4cc3ccc4O)[C@H](O)c3ccc(c(Cl)c3)Oc3cc2cc(c3O[C@@H]2O[C@H](CO)[C@@H](O)[C@H](O)[C@H]2O[C@H]2C[C@](C)(N)[C@H](O)[C@H](C)O2)Oc2ccc(cc2Cl)[C@H]1O [VANCOMYCIN],Activity,[2],100%
same,MIC90,Staphylococcus aureus [3],1 µg/mL
same,Activity,[5],0%
same,Activity,[6],100%
same,Activity,Staphylococcus aureus [7],100%
same,MIC90,[8],2 µg/mL
same,MIC90,[9],1 µg/mL
same,MIC90,Enterococcus faecalis [31],> 256 µg/mL
same,Activity,[11],100%
same,Activity,[12],100%
same,Activity,Enterococcus faecalis [32],94.3%
same,MIC90,[15],2 µg/mL
same,MIC90,Enterococcus faecalis [33],2 µg/mL
same,Activity,Enterococcus faecalis [34],100%
same,MIC90,Enterococcus faecium [35],> 256 µg/mL
same,Activity,[19],100%
same,Percent resistant isolates,Staphylococcus aureus [20],0%
same,Activity,Enterococcus faecium [36],0%
same,MIC90,Staphylococcus aureus [55],1 µg/mL
same,MIC90,Enterococcus faecium [37],> 256 µg/mL
same,Activity,Staphylococcus aureus [21],100%
same,Activity,Streptococcus [22],100%
same,MIC90,Enterococcus faecium [38],> 256 µg/mL
same,Activity,Enterococcus faecium [39],56.3%
same,Activity,Streptococcus [23],100%
same,Activity,[24],0%
same,Activity,Enterococcus faecalis [42],100%
same,MIC90,Enterococcus faecalis [44],2 µg/mL
same,MIC90,Enterococcus faecalis [45],> 256 µg/mL
same,Activity,Enterococcus faecalis [46],4.7%
same,Activity,Staphylococcus aureus [25],100%
same,Activity,Enterococcus faecalis [47],0%
same,MIC90,Enterococcus faecium [48],256 µg/mL
same,MIC90,Enterococcus faecalis [49],> 256 µg/mL
same,MIC90,[56],2 µg/mL
same,Activity,Enterococcus faecalis [51],95%
same,Activity,Enterococcus faecalis [52],0%
same,Activity,Enterococcus faecalis [53],100%
same,Percent of isolates resistant,Staphylococcus aureus [28],0%
same,Activity,[29],100%
same,Activity,Enterococcus faecium [54],0%
